In patent US20230278972A1, “SUBSTITUTED HALOALKYL SULFONANILIDE HERBICIDES” (FMC Corporation, priority 2020, published 2023):

Assays:
Assay type in all cases: in vivo
[1] = system: barnyardgrass (Echinochloa crus-galli); assay: Test A preemergence, barnyardgrass; conditions: Preemergence; for Plant response rating, Barnyardgrass: 125 g ai/ha, visual injury, 0 to 100 scale (0 no effect, 100 complete control), approx. 10 days; for Barnyardgrass plant response rating: 500 g ai/ha, visual injury on 0 to 100 scale (0 no effect, 100 complete control), approximately 10 days
Summary of the method: (§1)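 Compounds in non-phytotoxic solvent with surfactant. Soil: loam/sand. Preemergence via directed soil spray after seeding; postemergence on seedlings 2–10 cm, one- to two-leaf.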

kochia (Bassia scoparia) [2] = assay: Test A preemergence, kochia; conditions: Preemergence; for Plant response rating, Kochia: 125 g ai/ha, visual injury, 0 to 100 scale (0 no effect, 100 complete control), approx. 10 days; for Kochia plant response rating: 500 g ai/ha, visual injury on 0 to 100 scale (0 no effect, 100 complete control), approximately 10 days
Summary of the method: as §1

[3] = system: ragweed (common ragweed, Ambrosia artemisiifolia); assay: Test A preemergence, ragweed; conditions: Preemergence; for Plant response rating, Ragweed: 125 g ai/ha, visual injury, 0 to 100 scale (0 no effect, 100 complete control), approx. 10 days; for Ragweed plant response rating: 500 g ai/ha, visual injury on 0 to 100 scale (0 no effect, 100 complete control), approximately 10 days
Summary of the method: as §1

[4] = system: Ryegrass, Italian (Italian ryegrass, Lolium multiflorum); assay: Test A preemergence, Ryegrass, Italian; conditions: Preemergence; for Plant response rating, Ryegrass, Italian: 125 g ai/ha, visual injury, 0 to 100 scale (0 no effect, 100 complete control), approx. 10 days; for Ryegrass, Italian plant response rating: 500 g ai/ha, visual injury on 0 to 100 scale (0 no effect, 100 complete control), approximately 10 days
Summary of the method: as §1

[5] = system: Foxtail, Giant (giant foxtail, Setaria faberi); assay: Test A preemergence, Foxtail, Giant; conditions: Preemergence; for Plant response rating, Foxtail, Giant: 125 g ai/ha, visual injury, 0 to 100 scale (0 no effect, 100 complete control), approx. 10 days; for Foxtail, Giant plant response rating: 500 g ai/ha, visual injury on 0 to 100 scale (0 no effect, 100 complete control), approximately 10 days
Summary of the method: as §1

[6] = system: pigweed (Amaranthus retroflexus); assay: Test A preemergence, pigweed; conditions: for Plant response rating, Pigweed: 125 g ai/ha, visual injury, 0 to 100 scale (0 no effect, 100 complete control), approx. 10 days; for Pigweed plant response rating: 500 g ai/ha, visual injury on 0 to 100 scale (0 no effect, 100 complete control), approximately 10 days
Summary of the method: (§2)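 Seeds are sown in loam mixed with sand and sprayed on the soil surface right after planting for the preemergence test. Postemergence pots are sprayed once seedlings reach 2 to 10 cm at the one- to two-leaf stage. The same surfactant-containing, non-phytotoxic solvent formulation serves both.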

[7] = system: barnyardgrass (Echinochloa crus-galli); assay: Test A postemergence, barnyardgrass; conditions: Postemergence, 0 to 100 scale (0 no effect, 100 complete control)
Summary of the method: as §2

kochia (Bassia scoparia) [8] = assay: Test A postemergence, kochia; conditions: Postemergence, 0 to 100 scale (0 no effect, 100 complete control)
Summary of the method: as §1

[9] = system: ragweed (common ragweed, Ambrosia artemisiifolia); assay: Test A postemergence, ragweed; conditions: Postemergence, 0 to 100 scale (0 no effect, 100 complete control)
Summary of the method: as §1

[10] = system: Ryegrass, Italian (Italian ryegrass, Lolium multiflorum); assay: Test A postemergence, Ryegrass, Italian; conditions: Postemergence, 0 to 100 scale (0 no effect, 100 complete control)
Summary of the method: as §1

[11] = system: Foxtail, Giant (giant foxtail, Setaria faberi); assay: Test A postemergence, Foxtail, Giant; conditions: Postemergence, 0 to 100 scale (0 no effect, 100 complete control)
Summary of the method: as §1

[12] = system: pigweed (Amaranthus retroflexus); assay: Test A postemergence, pigweed; conditions: Postemergence, 0 to 100 scale (0 no effect, 100 complete control)
Summary of the method: as §1

[13] = system: wheat (Triticum aestivum); assay: Test A postemergence, wheat; conditions: Postemergence, 0 to 100 scale (0 no effect, 100 complete control)
Summary of the method: as §2

corn (Zea mays) = assay: Test A postemergence, corn; conditions: Postemergence, 0 to 100 scale (0 no effect, 100 complete control)
Summary of the method: as §1

[14] = system: blackgrass (Alopecurus myosuroides); assay: Test A postemergence, blackgrass; conditions: Postemergence, 0 to 100 scale (0 no effect, 100 complete control)
Summary of the method: as §1

[15] = system: galium (catchweed bedstraw, Galium aparine); assay: Test A postemergence, galium; conditions: Postemergence, 0 to 100 scale (0 no effect, 100 complete control)
Summary of the method: as §2

[16] = 500 g ai/ha, visual injury approx. 10 days

Compound	Plant response rating, Barnyardgrass [1]	Barnyardgrass plant response rating [1]	Plant response rating, Kochia (kochia (Bassia scoparia) [2])	Kochia plant response rating (kochia (Bassia scoparia) [2])	Plant response rating, Ragweed [3]	Ragweed plant response rating [3]	Plant response rating, Ryegrass, Italian [4]	Ryegrass, Italian plant response rating [4]	Plant response rating, Foxtail, Giant [5]	Foxtail, Giant plant response rating [5]	Plant response rating, Pigweed [6]	Pigweed plant response rating [6]	Plant response rating, Barnyardgrass ([7]; 125 g ai/ha)	Plant response rating, Barnyardgrass [7, 16]	Plant response rating, Kochia (kochia (Bassia scoparia) [8]; 125 g ai/ha)	Plant response rating, Kochia (kochia (Bassia scoparia) [8]; [16])	Plant response rating, Ragweed ([9]; 125 g ai/ha)	Plant response rating, Ragweed [9, 16]	Plant response rating, Ryegrass, Italian ([10]; 125 g ai/ha)	Plant response rating, Ryegrass, Italian [10, 16]	further results
Cc1cc(Cl)c(C(=O)N2CCCCC2)cc1NS(=O)(=O)C(F)(F)F [Compound 252]	40	100	60	80	80	90	60	100	100	100	100	100	0	30	30	60	10	90	30	70	Plant response rating, Foxtail, Giant ([11]; 125 g ai/ha): 0; Plant response rating, Foxtail, Giant [11, 16]: 40; Plant response rating, Pigweed ([12]; 125 g ai/ha): 70; Plant response rating, Pigweed [12, 16]: 80; Plant response rating, Wheat ([13]; 125 g ai/ha): 0; Plant response rating, Wheat [13, 16]: 40; Plant response rating, Corn (corn (Zea mays); 125 g ai/ha): 10; Plant response rating, Corn (corn (Zea mays); [16]): 0; Plant response rating, Blackgrass ([14]; 125 g ai/ha): 0; Plant response rating, Blackgrass [14, 16]: 0; Plant response rating, Galium ([15]; 125 g ai/ha): 80; Plant response rating, Galium [15, 16]: 80
Cc1cc(Cl)c(C(=O)N2CCCCC2)cc1N(S(=O)(=O)C(F)(F)F)S(=O)(=O)C(F)(F)F [Compound 253]	60	70	70	80	40	40	60	100	100	100	100	100	0	20	30	60	30	50	0	0	Plant response rating, Foxtail, Giant ([11]; 125 g ai/ha): 0; Plant response rating, Foxtail, Giant [11, 16]: 0; Plant response rating, Pigweed ([12]; 125 g ai/ha): 50; Plant response rating, Pigweed [12, 16]: 80; Plant response rating, Wheat ([13]; 125 g ai/ha): 0; Plant response rating, Wheat [13, 16]: 0; Plant response rating, Corn (corn (Zea mays); 125 g ai/ha): 0; Plant response rating, Corn (corn (Zea mays); [16]): 0; Plant response rating, Blackgrass ([14]; 125 g ai/ha): 0; Plant response rating, Blackgrass [14, 16]: 0; Plant response rating, Galium ([15]; 125 g ai/ha): 70; Plant response rating, Galium [15, 16]: 90
Cc1cc(Cl)c(C(=O)N(C)C)cc1N(S(=O)(=O)C(F)(F)F)S(=O)(=O)C(F)(F)F [Compound 256]	90	100	60	90	60	80	80	100	30	90	100	100	60	50	50	70	40	80	0	50	Plant response rating, Foxtail, Giant ([11]; 125 g ai/ha): 10; Plant response rating, Foxtail, Giant [11, 16]: 0; Plant response rating, Pigweed ([12]; 125 g ai/ha): 60; Plant response rating, Pigweed [12, 16]: 80; Plant response rating, Wheat ([13]; 125 g ai/ha): 20; Plant response rating, Wheat [13, 16]: 60; Plant response rating, Corn (corn (Zea mays); 125 g ai/ha): 0; Plant response rating, Corn (corn (Zea mays); [16]): 20; Plant response rating, Blackgrass ([14]; 125 g ai/ha): 0; Plant response rating, Blackgrass [14, 16]: 0; Plant response rating, Galium ([15]; 125 g ai/ha): 60; Plant response rating, Galium [15, 16]: 80
